Experimental data published in PubChem BioAssay (NCI).
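GI50 = concentration required for 50% inhibition of growth. TGI is the concentration that stops growth completely.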

What was measured:
Assay in all cases: growth of human tumour cells (NCI), 384-well format
[1] = tested on: SK-MEL-28 melanoma
[2] = tested on: CAKI-1 renal
[3] = tested on: NCI/ADR-RES ovarian
[4] = tested on: OVCAR-8 ovarian
[5] = tested on: MALME-3M melanoma
[6] = tested on: A498 renal
[7] = tested on: HT29 colon
[8] = tested on: NCI-H226 lung
[9] = tested on: 786-0 renal
[10] = tested on: K-562 leukemia
[11] = tested on: SW-620 colon
[12] = tested on: HCT-116 colon
[13] = tested on: SK-MEL-2 melanoma

**Q.** How did the GI50 [1] turn out when `NC(=O)[C@@H](CC1CC1)[C@@H](CCC(F)(F)F)C(=O)N[C@H]1N=C(c2ccccc2)c2cccc(F)c2NC1=O` was run?
**A.** 17.8 µM

**Q.** What about the TGI [1] of the same compound?
**A.** 33.2 µM

**Q.** And the GI50 [2]?
**A.** 15 µM

**Q.** What about the TGI [2] of the same compound?
**A.** 36.8 µM

**Q.** What about the GI50 [3] of the same compound?
**A.** > 86.4 µM

**Q.** And the TGI [3]?
**A.** > 100 µM

**Q.** And the GI50 [4]?
**A.** 16 µM

**Q.** What about the TGI [4] of the same compound?
**A.** 33.5 µM

**Q.** And the GI50 [5]?
**A.** 14.8 µM

**Q.** What about the TGI [5] of the same compound?
**A.** 28.2 µM

**Q.** What about the GI50 [6] of the same compound?
**A.** 15 µM

**Q.** What about the TGI [6] of the same compound?
**A.** 43 µM

**Q.** What about the GI50 [7] of the same compound?
**A.** 32.9 µM

**Q.** And the TGI [7]?
**A.** 98 µM

**Q.** And the GI50 [8]?
**A.** 16.5 µM

**Q.** What about the TGI [8] of the same compound?
**A.** 30.5 µM

**Q.** And the GI50 [9]?
**A.** 20.3 µM

**Q.** And the TGI [9]?
**A.** > 67.6 µM

**Q.** And the GI50 [10]?
**A.** 7.18 µM

**Q.** And the TGI [10]?
**A.** 62.6 µM

**Q.** What about the GI50 [11] of the same compound?
**A.** 17.7 µM

**Q.** What about the TGI [11] of the same compound?
**A.** 35.1 µM

**Q.** And the GI50 [12]?
**A.** 10.5 µM

**Q.** What about the TGI [12] of the same compound?
**A.** 26.1 µM

**Q.** And the GI50 [13]?
**A.** 19.7 µM

**Q.** What about the TGI [13] of the same compound?
**A.** 35.2 µM
